The values that follow come from patent US4529736A, “3a-(substituted phenyl)-2,3,3a,4,7,7a-hexahydro[or 3a-(substituted-phenyl)octahydro]-4,7-alkano-1H-isoindoles for treating depression in warm-blooded animals” (American Cyanamid Company, priority 1983, dated 1985).

Assay [1] deals with tetrabenazine-induced depression. The experiment in a line: Tetrabenazine Induced Depression (exploratory behaviour). It counts as in vivo. The note with it: Mus musculus, ip, read-out: % Mice Protected. As to the method: The compounds of this invention are useful as antidepressant agents in warm-blooded animals as verified by the following test. The antidepressant properties of these compounds were tested by measuring their ability to counteract depression induced in animals by the administration of tetrabenazine methanesulfonate. Each test compound was administered orally (P.O.) or intraperitoneally (I.P.) to 10 mice at a dose of 25 mg/kg of body weight. Thirty minutes later, tetrabenazine methanesulfonate was administered intraperitoneally to each mouse at a dose of 39 mg/kg of body weight, which dose is known to depress markedly the exploratory behaviour of normal mice. Thirty minutes later the mice were tested for their exploratory behaviour as described by E. Greenblatt and A. C. Osterberg, Toxicology and Applied Pharmacology, 7, 566-578 (1965).

Assay [2] relates to tetrabenazine-induced ptosis. The experiment in a line: Tetrabenazine Induced Ptosis (inhibition of ptosis). The class given is in vivo. Particulars: Mus musculus, ip, read-out: % Mice Responding. As to the method:
The antidepressant activity of the compounds of this invention was further established in the following test. Inhibition of tetrabenazine-induced ptosis is observed concomitantly with the inhibition of tetrabenazine-induced depression. Ptosis is defined as more than 75% closure of palpebral aperture induced in animals by the administration of tetrabenazine methanesulfonate. The compounds were administered orally (P.O.) or intraperitoneally (I.P.) at 25 mg/kg to groups of 10 mice. Thirty minutes later, tetrabenazine methanesulfonate was administered intraperitoneally to each mouse at a dose of 39 mg/kg. Thirty minutes after the injection of tetrabenazine, the mice were placed on an observation disc and examined for 10 seconds for inhibition of ptosis. […]

The target of assay [3] is T1, [^3 H]-imipramine binding to human platelet membranes (Homo sapiens, UniProt P31645).
T1 construct: from tissue; host or cells: human platelets (sonicated, washed membranes)
The experiment in a line: Platelet Imipramine Binding: inhibition of [^3 H]-imipramine binding to human platelet membranes. Particulars: 50 μl of 50 μM compound stock + 200 μl membrane/[^3 H]imipramine mixture; 60 minutes at 0° C.; 10 μM desmethylimipramine = 0% binding. As to the method:
The activity of the compounds of this invention as antidepressant agents was further verified in the following test which measures the ability of a test compound to inhibit [^3 H]-imipramine binding to human platelet membranes.
Human platelet concentrates were diluted 1:20 with antiprotease containing buffer of the following composition:
0.005N potassium chloride
3 mN ethylenediaminetetraacetic acid
1 mN ethyleneglycol-bis-(β-aminoethyl ether)-N,N'-tetraacetic acid
This buffer was kept at pH 6.8 to prevent platelet release and aggregation.
The diluted platelets were centrifuged at 2500 g and then resuspended in 50 volumes of the same buffer. The cells were then ruptured with a Branson sonicator while the suspension was maintained in an ice bath. The ruptured cells were then centrifuged at 18,000 g, resuspended in fresh buffer and recentrifuged at 18,000 g. These membranes were diluted with the above antiprotease buffer which had been adjusted to pH 7.4 and to a concentration of 3.0 mg/ml.
The test compounds were dissolved in dimethylsulfoxide at a concentration of 50 mM and then diluted 1:10 in either water, 0.1M hydrochloric acid or 0.1M sodium hydroxide. They were then diluted 1:100 in buffer to 50 μM, and 50 μl of this stock solution was placed in triplicate test tubes. The tubes were cooled to 0° C. and 200 μl of the following mixture were added:
100 μl of 3 mg/ml membrane in buffer
50 μl of 15 nM[^3 H]imipramine in buffer
The tubes were incubated for 60 minutes at 0° C. Controls contain either buffer alone (100%) of 10 μM of final desmethylimipramine (DMI) (0%).
The samples were diluted with 5 ml of buffer [0.12M-sodium chloride, 0.05M-tris buffer, 0.005M-potassium chloride (pH 7.4)], vacuum filtered and washed twice with 5 ml of buffer. Radioactivity was measured in a liquid scintillation counter and the degree of binding was calculated.

For assay [4], the system named is stress induced depressed ("coping") behavior. The experiment in a line: Stress Induced Depressed Behavior Test. The note with it: rats, intraperitoneally at 5-20 mg/kg; warm (44.5° C.) surface for 15 minutes; high ratio = active. It counts as in vivo. As to the method: The compounds of this invention are active as antistress agents in warm-blooded animals as evidenced by their results when tested in the Stress Induced Depressed Behavior Test. In this test, rats were confined on a warm (44.5° C.), but aversive, surface for 15 minutes. After 5-6 minutes, control rats began to show episodes of depressed ("coping") behavior where they remained flat and immobile for short to long periods of time. The onset and total duration of this behavior was timed. A ratio of onset/duration was calculated. The test compounds were administered intraperitoneally at 5-20 mg/kg of body weight. Active compounds prolong the time of onset and shorten the duration time resulting in high ratios.

Structures are written as SMILES. Where a name gives a salt, the structure may show the parent alone.

T1 sequence (P31645 whole entry): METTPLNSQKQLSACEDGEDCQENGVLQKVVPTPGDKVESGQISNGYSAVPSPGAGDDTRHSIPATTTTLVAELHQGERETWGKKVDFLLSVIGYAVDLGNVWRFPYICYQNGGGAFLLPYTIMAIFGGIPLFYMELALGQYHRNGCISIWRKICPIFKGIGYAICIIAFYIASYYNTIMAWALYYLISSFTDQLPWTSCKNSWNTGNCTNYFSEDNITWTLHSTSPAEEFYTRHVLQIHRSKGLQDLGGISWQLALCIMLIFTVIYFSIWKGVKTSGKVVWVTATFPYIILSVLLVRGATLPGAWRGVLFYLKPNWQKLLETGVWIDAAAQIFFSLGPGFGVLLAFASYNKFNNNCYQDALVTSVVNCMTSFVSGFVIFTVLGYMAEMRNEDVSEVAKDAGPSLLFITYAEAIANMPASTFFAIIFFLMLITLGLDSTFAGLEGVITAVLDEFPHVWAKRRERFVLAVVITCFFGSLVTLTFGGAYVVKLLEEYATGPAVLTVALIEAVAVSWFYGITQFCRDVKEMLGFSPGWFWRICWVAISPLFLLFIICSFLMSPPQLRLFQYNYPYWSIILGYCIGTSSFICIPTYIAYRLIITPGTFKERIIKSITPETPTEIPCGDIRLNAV

By inhibition is commonly meant the drop in the measured response relative to a control, in per cent. With `CN1C[C@@H]2[C@@H]3CC[C@@H](C3)[C@]2(c2ccc(Cl)cc2)C1` (relative stereo) [3a-(4-Chlorophenyl)octahydro-2-methyl-4,7-methano-1H-isoindole fumarate (1:1)], the responders at 25 mg/kg in assay [1] is 60%; in assay [2], 90%. The inhibition at 10 µM in assay [3] came to 91%. The Ratio onset/duration in assay [4] came to 20.
